One experiment concerns A549. Nature of the experiment: Cytotoxicity against human A549 cells after 48 hrs by MTT assay. It counts as functional, cell-based. Particulars: A549, 48 h. (Formazan colour is commonly taken as a measure of viable cells.)
Experiment [1] is described as follows: Cytotoxicity against human sSPC-A1 cells after 48 hrs by MTT assay. It counts as functional, cell-based. The following applies: sSPC-A1, 48 h.

A word on the IC50: it is the point on the concentration scale where inhibition reaches its midpoint. Low readings indicate inhibition by little substance, high ones a need for much substance. `CCCCNc1nc(Nc2cccc(C)c2)nc2oc(C)c(C(=O)OCC)c12`: 9 µM corresponded to half-maximal inhibition with A549 (IC50). Take `CCOC(=O)c1c(C)oc2nc(Nc3ccccc3)nc(NCCO)c12`: the IC50 with A549 was 13 µM; in experiment [1], 24.2 µM. The like results for `CCOC(=O)c1c(C)oc2nc(Nc3ccccc3)nc(N3CCN(C)CC3)c12` were, in that order, 0.8 µM and 26.1 µM.

In the case of `CCCCNc1nc(Nc2ccccc2)nc2oc(C)c(C(=O)OCC)c12`, the IC50 in the experiment on A549 was 2.7 µM; in experiment [1] it was 50.2 µM. On the same counts, the results for `CCOC(=O)c1c(C)oc2nc(Nc3cccc(C)c3)nc(NC(C)C)c12` are 8.6 µM and 46.3 µM.

In turn, `CCOC(=O)c1c(C)oc2nc(Nc3cccc(C)c3)nc(N(CC)CC)c12` showed an IC50 in the experiment on A549 of 8.8 µM.

In the case of `CCOC(=O)c1c(C)oc2nc(Nc3cccc(C)c3)nc(N3CCOCC3)c12`, the results for the 50% inhibitory concentration (IC50) (in the experiment on A549; in experiment [1]) were 14 µM and 70.8 µM, respectively. The compound `CCOC(=O)c1c(C)oc2nc(Nc3ccccc3)nc(NC(C)C)c12` gave a 50% inhibitory concentration (IC50) in the experiment on A549 of 21.5 µM. For the compound `CCOC(=O)c1c(C)oc2nc(Nc3ccccc3)nc(N3CCOCC3)c12`, the IC50 with A549 came out at 15.2 µM; in experiment [1] it was 69 µM. `CCOC(=O)c1c(C)oc2nc(Nc3cccc(C)c3)nc(N3CCN(C)CC3)c12`: the IC50 in the experiment with A549 worked out at 5.5 µM; in experiment [1] it was 18.2 µM.

The values above are taken from ChEMBL document CHEMBL1268830, “Efficient synthesis and biological evaluation of some 2,4-diamino-furo[2,3-d]pyrimidine derivatives” (Bioorg Med Chem Lett, 2010).
